# Laboratory results taken from patent US20240425496A1, “AZETIDINYL PYRIMIDINES AND USES THEREOF” (Aerie Pharmaceuticals, Inc., priority 2021, published 2024).
# Columns and labels:
# [1] = target: JAK1 (Homo sapiens (Human), UniProt P23458); assay: JAK kinase assay (KINASE-GLO luminescent), JAK1 enzyme; type: biochemical; conditions: JAK1 enzyme 10 nM, Abl peptide substrate
# Experimental: (§1) All compounds were initially prepared as 10 mM stocks in anhydrous dimethylsulfoxide (DMSO). […] Test compounds were then serially diluted 1:5 in DMSO for an 11-point concentration response and further diluted in the assay buffer bringing all compound concentrations to a final range of 100 μM to 10 μM in 2.5% DMSO. […] The reaction was initiated by the addition of 10 μL of 4× stock solution ATP (2 μM). Reactions were thoroughly mixed manually, covered, and allowed to incubate at room temperature for 75 min. Protein kinase activity was quantitated using Promega's KINASE-GLO™ luminescent Kinase Assay Kit according to the manufacturer's directions. ATP concentrations remaining in Test wells following the termination of the enzymatic reaction were compared against control wells containing equivalent amounts of DMSO containing no inhibitor (CTRL). […] Percent of Control (POC) values were determined for each concentration of compound tested according to the equation: […]
# (§2) IC50 values were calculated using the following 4-parameter logistic curve-fitting algorithm:
# (§3) Compounds were prepared in the exact same manner as described in the ROCK Kinase Assay with the exception to the substrate and enzyme. […] All other steps and solutions remain identical to the ROCK Kinase Assay above.
# [2] = target: TYK2 (Homo sapiens (Human), UniProt P29597); assay: JAK kinase assay (KINASE-GLO luminescent), TYK2 enzyme; type: biochemical; conditions: TYK2 enzyme 10 nM, Abl peptide substrate
# Experimental: as §1, §2, §3
# Sequence of JAK1 (P23458 whole entry, species assumed): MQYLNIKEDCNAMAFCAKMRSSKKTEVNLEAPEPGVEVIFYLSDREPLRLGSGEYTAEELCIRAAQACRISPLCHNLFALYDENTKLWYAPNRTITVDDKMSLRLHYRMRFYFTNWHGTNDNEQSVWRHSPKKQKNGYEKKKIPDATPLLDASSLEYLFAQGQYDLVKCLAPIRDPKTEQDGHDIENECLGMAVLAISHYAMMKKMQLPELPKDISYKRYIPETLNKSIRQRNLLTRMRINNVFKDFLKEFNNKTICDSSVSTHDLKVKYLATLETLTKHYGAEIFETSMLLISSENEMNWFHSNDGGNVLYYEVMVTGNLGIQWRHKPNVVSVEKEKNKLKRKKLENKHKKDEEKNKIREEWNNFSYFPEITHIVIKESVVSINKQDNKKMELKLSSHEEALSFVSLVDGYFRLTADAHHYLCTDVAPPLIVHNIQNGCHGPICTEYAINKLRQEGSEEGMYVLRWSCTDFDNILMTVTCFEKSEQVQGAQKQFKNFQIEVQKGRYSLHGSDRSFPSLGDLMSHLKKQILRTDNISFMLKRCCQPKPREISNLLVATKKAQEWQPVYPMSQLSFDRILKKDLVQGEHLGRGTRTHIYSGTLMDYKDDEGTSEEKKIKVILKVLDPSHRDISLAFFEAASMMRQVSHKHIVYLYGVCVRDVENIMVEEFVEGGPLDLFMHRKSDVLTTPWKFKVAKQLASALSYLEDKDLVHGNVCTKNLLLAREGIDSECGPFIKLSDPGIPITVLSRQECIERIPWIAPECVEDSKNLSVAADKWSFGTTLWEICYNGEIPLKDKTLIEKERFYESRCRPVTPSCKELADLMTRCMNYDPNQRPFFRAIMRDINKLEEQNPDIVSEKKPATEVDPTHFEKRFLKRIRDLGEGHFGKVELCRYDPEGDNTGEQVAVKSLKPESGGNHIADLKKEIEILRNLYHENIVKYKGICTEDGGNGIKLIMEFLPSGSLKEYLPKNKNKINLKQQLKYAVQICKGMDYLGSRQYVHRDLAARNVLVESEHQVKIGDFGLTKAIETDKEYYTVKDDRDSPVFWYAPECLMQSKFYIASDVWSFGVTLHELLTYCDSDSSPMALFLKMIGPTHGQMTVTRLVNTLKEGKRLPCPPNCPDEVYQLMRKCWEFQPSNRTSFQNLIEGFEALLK
# Sequence of TYK2 (P29597 whole entry, species assumed): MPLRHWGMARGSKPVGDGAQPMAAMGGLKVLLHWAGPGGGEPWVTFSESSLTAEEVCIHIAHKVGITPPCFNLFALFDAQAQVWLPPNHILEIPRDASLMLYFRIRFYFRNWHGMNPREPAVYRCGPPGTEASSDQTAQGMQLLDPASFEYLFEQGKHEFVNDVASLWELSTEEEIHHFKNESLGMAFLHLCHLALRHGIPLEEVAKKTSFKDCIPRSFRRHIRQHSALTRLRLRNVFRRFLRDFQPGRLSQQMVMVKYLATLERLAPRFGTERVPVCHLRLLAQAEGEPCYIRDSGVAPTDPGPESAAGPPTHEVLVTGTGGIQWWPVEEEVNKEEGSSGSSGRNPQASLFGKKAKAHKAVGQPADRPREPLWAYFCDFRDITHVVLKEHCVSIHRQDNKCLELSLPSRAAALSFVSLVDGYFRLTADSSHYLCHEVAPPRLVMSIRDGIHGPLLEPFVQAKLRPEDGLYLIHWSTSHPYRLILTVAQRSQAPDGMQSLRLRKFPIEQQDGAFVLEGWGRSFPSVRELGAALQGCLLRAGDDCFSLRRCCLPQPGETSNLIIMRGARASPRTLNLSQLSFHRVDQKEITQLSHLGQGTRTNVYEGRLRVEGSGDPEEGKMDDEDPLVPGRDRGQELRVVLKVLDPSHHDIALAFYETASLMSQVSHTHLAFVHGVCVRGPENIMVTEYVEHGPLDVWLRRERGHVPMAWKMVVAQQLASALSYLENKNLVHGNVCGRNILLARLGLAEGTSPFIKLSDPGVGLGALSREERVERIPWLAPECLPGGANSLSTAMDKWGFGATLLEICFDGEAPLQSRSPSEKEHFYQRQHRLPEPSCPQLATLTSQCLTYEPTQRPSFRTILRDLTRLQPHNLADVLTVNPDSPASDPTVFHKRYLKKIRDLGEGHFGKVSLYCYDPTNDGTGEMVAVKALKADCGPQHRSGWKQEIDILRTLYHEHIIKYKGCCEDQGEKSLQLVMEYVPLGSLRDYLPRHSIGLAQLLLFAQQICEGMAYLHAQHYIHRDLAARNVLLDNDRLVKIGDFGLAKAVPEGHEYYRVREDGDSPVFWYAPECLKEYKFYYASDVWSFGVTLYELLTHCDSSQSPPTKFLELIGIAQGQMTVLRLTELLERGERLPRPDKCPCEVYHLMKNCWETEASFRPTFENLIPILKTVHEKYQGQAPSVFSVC
Structure (SMILES),IC50 [1] [nM],IC50 [2] [nM]
Cc1cnc(Nc2cnn(C)c2)nc1N1CC(CC#N)(NCc2cccc(Cl)c2)C1 [E351],< 20,< 50
Cc1cnc(Nc2cccc(CN(C)C)c2)nc1N1CC(C)(NC(=O)c2cccc(F)c2)C1 [E310],< 20,< 50
Cc1cc(Nc2ncc(C)c(N3CC(CC#N)(NC(=O)C4CCCC4)C3)n2)sn1 [E297],< 50,< 20
Cc1cc(Nc2ncc(C)c(N3CC(CC#N)(N4C5CCCC4C5)C3)n2)sn1 [E49],< 30,< 20
Cc1cc(Nc2ncc(C)c(N3CC(C4CC4)C3)n2)sn1 [E108a],< 50,< 10
Cc1cc(Nc2ncc(C)c(N3CC(CC#N)(NC(=O)c4cccc(F)c4C)C3)n2)sn1 [E318],< 50,< 30
Cc1cnc(Nc2ccccc2)nc1N1CC(CC#N)(N2CCN(C)CC2)C1 [E216-N],< 70,< 30
Cc1cnc(Nc2cc(CN(C)C)ns2)nc1N1CC(CC#N)(N2CCN3CCCC[C@H]3C2)C1 [E117-S],< 25,< 10
CCC1(N2CCN3C[C@H](F)C[C@H]3C2)CN(c2nc(Nc3cnn(C)c3)ncc2C)C1 [E170a],< 50,< 100
Cc1cc(Nc2ncc(C)c(N3CC(CC#N)(NC(=O)c4cccnc4)C3)n2)sn1 [E303],< 20,< 30
Cc1cc(Nc2ncc(C)c(N3CC(C)(CNC(=O)C4CN(C)C4)C3)n2)sn1 [E280],< 400,< 400
Cc1cc(Nc2ncc(C)c(N3CC(CC4CC4)C3)n2)sn1 [E109a],< 50,< 10
Cc1cc(Nc2ncc(C)c(N3CC(N4CCN5C[C@H](F)C[C@H]5C4)C3)n2)sn1 [E110a],< 50,< 10
Cc1cnc(Nc2cnn(C)c2)nc1N1CC(CC#N)(N2CCN3CCCC[C@@H]3C2)C1 [E159a],< 120,< 100
Cc1cnc(Nc2ccc(CN(C)C)cc2)nc1N1CC(C)(NC(=O)c2cccc(F)c2)C1 [E308],< 100,< 50
Cc1cc(Nc2ncc(C)c(N3CC(C)(CNC(=O)C4CCN(C(=O)OC(C)(C)C)CC4(F)F)C3)n2)sn1 (stereo not drawn) [E284],< 100,< 200
Cc1cnc(Nc2ccc(N3CCOCC3)cc2)nc1N1CC(C)(NC(=O)c2cccc(F)c2)C1 [E311],< 50,< 50
CCOC(=O)CC1(N2CCCCC2)CN(c2nc(Nc3cc(C)ns3)ncc2C)C1 [E65a],< 1000,< 50
Cc1cnc(Nc2ccc(C3COC3)cc2)nc1N1CC(CC#N)(N2CCN(C)CC2)C1 [E216-L],< 50,< 20

Structure (SMILES),IC50 [1] [nM],IC50 [2] [nM]
Cc1cc(Nc2ncc(C)c(N3CC(CC#N)(N4CCN5CCN(C)CC5C4)C3)n2)sn1 (stereo not drawn) [E73a],< 100,< 100
Cc1cc(Nc2ncc(C)c(N3CC(C)(CNC(=O)C4CCNCC4(F)F)C3)n2)sn1 (stereo not drawn) [E285],< 100,< 150
Cc1cnc(Nc2ccc(N3CCN(C)CC3)c(C(F)(F)F)c2)nc1N1CC2(C1)CC2(F)F [E115],< 250,< 100
"COc1ccc(CNC2(CC#N)CN(c3nc(Nc4cc(C)ns4)ncc3C)C2)cc1 [E288, 2-(3-((4-methoxybenzyl)amino)-1-(5-methyl-2-((3-methylisothiazol-5-yl)amino)pyrimidin-4-yl)azetidin-3-yl)acetonitrile]",< 50,< 50
Cc1cc(Nc2ncc(C)c(N3CC(CC#N)(NCC4CC4(F)F)C3)n2)sn1 (stereo not drawn) [E357],< 20,< 10
Cc1cc(Nc2ncc(C)c(N3CC(CCC#N)C3)n2)sn1 [E117-T],< 25,< 10
Cc1cc(Nc2ncc(C)c(N3CC(CC#N)(N4C[C@H]5CN(C)C[C@H]5C4)C3)n2)sn1 [E104a],< 100,< 100
CO[C@H]1C[C@H]2CN(C3(CC#N)CN(c4nc(Nc5cc(C)ns5)ncc4C)C3)CCN2C1 [E71a],< 10,< 10
Cc1cc(Nc2ncc(C)c(N3CC(CCO)(N4CCCCC4)C3)n2)sn1 [E66a],< 50,< 10
Cc1cc(Nc2ncc(C)c(N3CC(CC#N)(N4C[C@@H](C)N(C)[C@@H](C)C4)C3)n2)sn1 [E34],< 50,< 10
Cc1cc(Nc2ncc(C)c(N3CC(CC#N)(N4C[C@@H](C)N(C)[C@H](C)C4)C3)n2)sn1 [E35],< 50,< 10
Cc1cnc(Nc2ccc(S(C)(=O)=O)cc2)nc1N1CC(CC(F)F)(C2CC2)C1 [E216-B],< 10,< 10
Cc1cc(Nc2ncc(C)c(N3CC(CC#N)(N4CCN(CC5CC5)CC4)C3)n2)sn1 [E48],< 10,< 10
Cc1cc(Nc2ncc(C)c(N3CC(CC#N)(NCC4CCC(F)(F)C4)C3)n2)sn1 (stereo not drawn) [E358],< 10,< 10
Cc1cnc(Nc2ccccc2)nc1N1CC(CC#N)(N2CCN(C)CC2)C1 [E216-V],< 100,< 50
Cc1cc(Nc2ncc(C)c(N3CC(CC#N)(N4CCCCC4)C3)n2)sn1 [E10],< 10,
Cc1cc(Nc2ncc(C)c(N3CC(CC#N)C3)n2)sn1 [E6],,< 10
"Cc1cc(Nc2ncc(C)c(N3CC(CC#N)(N4CCN(C)CC4)C3)n2)sn1 [E5, 2-(1-(5-methyl-2-((3-methylisothiazol-5-yl)amino)pyrimidin-4-yl)-3-(4-methyl-piperazin-1-yl)azetidin-3-yl)acetonitrile]",,< 10

# The remaining lines, values ahead:
IC50 [1] [nM],IC50 [2] [nM],Structure (SMILES)
< 10,< 10,Cc1cnc(Nc2ccc3c(c2)CN(C)C3)nc1N1CC(CC(F)F)(C2CC2)C1 [E216-A]
< 10,< 10,Cc1cc(Nc2ncc(C)c(N3CC(CC#N)(N4CC5(C4)CC5(F)F)C3)n2)sn1 [E88a]
< 10,< 10,Cc1cnc(Nc2cnn(C)c2)nc1N1CC(CC#N)(N2CCN3CC(C)(C)C[C@H]3C2)C1 [E173a]
< 10,< 20,Cc1cc(Nc2ncc(C)c(N3CC(CC#N)(NC(=O)c4cccc(C(F)(F)F)c4)C3)n2)sn1 [E315]
< 10,< 10,[2H]C([2H])([2H])n1cc(Nc2ncc(C)c(N3CC(CC#N)(N4CCN5C[C@H](F)C[C@H]5C4)C3)n2)cn1 [E156a]
< 10,< 10,Cc1cnc(Nc2ccc3c(c2)CN(C)C3)nc1N1CC(CC#N)(N2CCC(F)CC2)C1 [E216-E]
< 10,< 10,Cc1cc(Nc2ncc(C3CC3)c(N3CC(CC#N)(N4CCN5C[C@H](F)C[C@H]5C4)C3)n2)sn1 [E102a]
< 10,< 10,Cc1cc(Nc2ncc(C)c(N3CC(CC#N)(N4CC(C)CC5(CC5)C4)C3)n2)sn1 (stereo not drawn) [E23]
< 10,< 10,Cc1cc(Nc2ncc(C)c(N3CC(CC#N)(NCc4cccc(Cl)c4)C3)n2)sn1 [E350]
< 10,< 10,Cc1cc(Nc2ncc(C)c(N3CC(CC#N)(N4CCN5C[C@H](F)C[C@H]5C4)C3)n2)sn1 [E67a]
< 10,< 10,Cc1cc(Nc2ncc(C)c(N3CC(CC#N)(N4CCOCC4)C3)n2)sn1 [E9]
< 10,< 10,Cc1cc(Nc2ncc(C)c(N3CC(CC#N)(N4CCC(CS(C)(=O)=O)CC4)C3)n2)sn1 [E47]
< 10,< 10,Cc1cc(Nc2ncc(C)c(N3CC(CC#N)(OC4CC5(C4)CC5(F)F)C3)n2)sn1 (stereo not drawn) [E106a]
< 10,< 10,Cc1cc(Nc2ncc(C)c(N3CC(CC#N)(N4CCn5c(cnc5C)C4)C3)n2)sn1 [E91a]
< 10,< 50,CCC1(NC(=O)c2cccc(F)c2)CN(c2nc(Nc3cnn(C)c3)ncc2C)C1 [E318C]
< 5,< 5,Cc1cc(Nc2ncc(C)c(N3CC(CC#N)(N4CC(C)CC(C)C4)C3)n2)sn1 (stereo not drawn) [E16]
< 10,< 10,Cc1cnc(Nc2cnn(C3CC3)c2)nc1N1CC(CC#N)(N2CCN3C[C@H](F)C[C@H]3C2)C1 [E175-C]
< 10,< 10,Cc1cnc(Nc2ccc3c(c2)CN(C)C3)nc1N1CC(CC#N)(N2CCC3(CC2)COC3)C1 [E216-G]
< 10,< 10,Cc1cc(Nc2ncc(C)c(N3CC(CC#N)(N4CCn5cncc5C4)C3)n2)sn1 [E93a]
< 10,< 10,Cc1cc(Nc2ncc(C)c(N3CC(CC#N)(N4CCN(C5CCC5)CC4)C3)n2)sn1 [E64a]
< 10,< 10,Cc1cc(Nc2ncc(C)c(N3CC(CC#N)(N4CCN5CCCC[C@H]5C4)C3)n2)sn1 [E80a]
< 10,< 10,Cc1cc(Nc2ncc(C)c(N3CC(CC#N)(NC(=O)c4cccc(Cl)c4)C3)n2)sn1 [E314]
< 10,< 10,Cc1cc(Nc2ncc(C)c(N3CC(CCO)(N4CCN5CCC[C@H]5C4)C3)n2)sn1 [E103a]
< 10,< 20,Cc1cc(Nc2ncc(C)c(N3CC(CC#N)(N4CCN(CC(C)(C)F)CC4)C3)n2)sn1 [E52D]
< 10,< 10,Cc1cc(Nc2ncc(C)c(N3CC(CC#N)(NC(=O)C4CCCC(F)(F)C4)C3)n2)sn1 (stereo not drawn) [E356]
< 5,< 5,Cc1cc(Nc2ncc(C)c(N3CC(CC#N)(N4CCN5CC6(CC6)C[C@H]5C4)C3)n2)sn1 [E117-G]
